Test results: patent publication US10597388B2, “Pyridazinone herbicides” (FMC CORPORATION, priority 2014, dated 2020)
Read-outs that look alike come from different tables or passages of the source.

Experiments:
Type in all cases: in vivo
[1] = tested on: wheat (Triticum aestivum); assay: Test A greenhouse herbicide test, pre- and postemergence; conditions: Triticum aestivum, post-emergence, 240 h, Postemergence; for plant injury at 125 g/ha: 125 g ai/ha, visual rating after approx. 10 d, 0 to 100 scale (0 no effect, 100 complete control), read-out: Plant response rating, Wheat; for plant injury at 500 g/ha: 500 g ai/ha, 0 to 100 scale, 0 is no effect, 100 is complete control, read-out: Wheat plant response rating
In short: (§1)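 Seeds sown in loam–sand blend got a preemergence directed soil spray of compound in non-phytotoxic solvent with surfactant. Postemergence treatment was given at 2–10 cm, one- to two-leaf stage. After ~10 d in greenhouse, injury was rated visually vs untreated controls, 0 (no effect) to 100 (complete control).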

[2] = tested on: foxtail, giant (giant foxtail, Setaria faberii); assay: as above; conditions: Setaria faberi, 240 h; for pest or weed control at 125 g/ha: 125 g ai/ha; for pest or weed control at 500 g/ha: 500 g ai/ha, 0 to 100 scale
In short: as §1

kochia (Kochia scoparia) = assay: as above; conditions: Bassia scoparia, 240 h; for pest or weed control at 125 g/ha: 125 g ai/ha; for pest or weed control at 500 g/ha: 500 g ai/ha, 0 to 100 scale
In short: as §1

corn (Zea mays) = assay: as above; conditions: Zea mays, post-emergence, 240 h, Postemergence; for Corn plant response rating (crop injury, 0 = no effect, 100 = complete kill) at 125 g/ha: 125 g ai/ha, visual rating after approx. 10 d, 0 to 100 scale (0 no effect, 100 complete control); for plant injury at 500 g/ha: 500 g ai/ha, 0 to 100 scale, 0 is no effect, 100 is complete control, read-out: Corn plant response rating
In short: as §1

[3] = tested on: ragweed (common ragweed, Ambrosia elatior); assay: as above; conditions: Ambrosia artemisiifolia, 240 h; for pest or weed control at 125 g/ha: 125 g ai/ha; for pest or weed control at 500 g/ha: 500 g ai/ha, 0 to 100 scale
In short: as §1

[4] = tested on: ryegrass, Italian (Italian ryegrass, Lolium multiflorum); assay: as above; conditions: Lolium multiflorum, 240 h; for pest or weed control at 125 g/ha: 125 g ai/ha; for pest or weed control at 500 g/ha: 500 g ai/ha, 0 to 100 scale
In short: as §1

[5] = tested on: blackgrass (Alopecurus myosuroides); assay: Test A greenhouse herbicide test, postemergence; conditions: Alopecurus myosuroides, post-emergence, 240 h; for pest or weed control at 125 g/ha: 125 g ai/ha, visual rating after approx. 10 d, 0 to 100 scale (0 no effect, 100 complete control), read-out: Plant response rating, Blackgrass; for pest or weed control at 500 g/ha: 500 g ai/ha, 0 to 100 scale, 0 is no effect, 100 is complete control, read-out: Blackgrass plant response rating
In short: (§2)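 Plants grown in loam soil/sand blend pots were treated postemergence at 2 to 10 cm height, one- to two-leaf stage, with formulated test chemicals. After approximately 10 d in a greenhouse, injury was rated visually against untreated controls on a 0 to 100 scale (0 no effect, 100 complete control).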

[6] = tested on: galium (catchweed bedstraw, Galium aparine); assay: Test A greenhouse herbicide test, postemergence; conditions: Galium, post-emergence, 240 h; for pest or weed control at 125 g/ha: 125 g ai/ha, visual rating after approx. 10 d, 0 to 100 scale (0 no effect, 100 complete control), read-out: Plant response rating, Galium; for pest or weed control at 500 g/ha: 500 g ai/ha, 0 to 100 scale, 0 is no effect, 100 is complete control, read-out: Galium plant response rating
In short: as §2

soybean (Glycine max) = assay: Test C greenhouse herbicide test, pre- and postemergence
In short: (§3)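 Preemergence: seeds sown in a loam soil–sand blend and sprayed with test chemicals in a non-phytotoxic solvent mixture containing surfactant. Postemergence: plants grown in peat-based medium and treated at 2 to 18 cm (1- to 4-leaf stage). After 13 to 15 d in a greenhouse, injury was visually rated 0–100 against controls.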

[7] = tested on: ragweed (common ragweed, Ambrosia elatior); assay: as above
In short: as §3

[8] = tested on: galium (catchweed bedstraw, Galium aparine); assay: as above
In short: as §3

[9] = tested on: ryegrass, Italian (Italian ryegrass, Lolium multiflorum); assay: as above
In short: as §3

[10] = post-emergence, Postemergence, visual rating after approx. 10 d, 0 to 100 scale (0 no effect, 100 complete control), read-out: Plant response rating, Foxtail, Giant
[11] = post-emergence, Postemergence, 0 is no effect, 100 is complete control, read-out: Foxtail, Giant plant response rating
[12] = pre-emergence, Preemergence, 0 to 100 scale where 0 is no effect and 100 is complete control, read-out: Foxtail, Giant plant response rating
[13] = pre-emergence, Preemergence, 0 no effect, 100 complete control, read-out: Plant response rating, Foxtail, Giant
[14] = post-emergence, Postemergence, visual rating after approx. 10 d, 0 to 100 scale (0 no effect, 100 complete control), read-out: Plant response rating, Kochia
[15] = post-emergence, Postemergence, 0 is no effect, 100 is complete control, read-out: Kochia plant response rating
[16] = pre-emergence, Preemergence, 0 to 100 scale where 0 is no effect and 100 is complete control, read-out: Kochia plant response rating
[17] = pre-emergence, Preemergence, 0 no effect, 100 complete control, read-out: Plant response rating, Kochia
[18] = post-emergence, Postemergence, visual rating after approx. 10 d, 0 to 100 scale (0 no effect, 100 complete control), read-out: Plant response rating, Ragweed
[19] = post-emergence, Postemergence, 0 is no effect, 100 is complete control, read-out: Ragweed plant response rating
[20] = pre-emergence, Preemergence, 0 to 100 scale where 0 is no effect and 100 is complete control, read-out: Ragweed plant response rating
[21] = pre-emergence, Preemergence, 0 no effect, 100 complete control, read-out: Plant response rating, Ragweed
[22] = post-emergence, Postemergence, visual rating after approx. 10 d, 0 to 100 scale (0 no effect, 100 complete control), read-out: Plant response rating, Ryegrass, Italian
[23] = post-emergence, Postemergence, 0 is no effect, 100 is complete control, read-out: Ryegrass, Italian plant response rating
[24] = pre-emergence, Preemergence, 0 to 100 scale where 0 is no effect and 100 is complete control, read-out: Ryegrass, Italian plant response rating
[25] = Postemergence, 31 g ai/ha, 0 to 100 scale (0 no effect, 100 complete control)
[26] = Postemergence, 125 g ai/ha, scale 0 to 100, 0 is no effect, 100 is complete control
[27] = Postemergence, 250 g ai/ha, scale 0 to 100, 0 no effect, 100 complete control, 13 to 15 d
[28] = postemergence, 62 g ai/ha, scale 0 to 100, 0 no effect, 100 complete control

Row | SMILES | plant injury at 125 g/ha [1] | plant injury at 500 g/ha [1] | pest or weed control at 125 g/ha [2, 10] | pest or weed control at 500 g/ha [2, 11] | pest or weed control at 125 g/ha [2, 12] | pest or weed control at 500 g/ha [2, 13] | pest or weed control at 125 g/ha (kochia (Kochia scoparia); [14]) | pest or weed control at 500 g/ha (kochia (Kochia scoparia); [15]) | pest or weed control at 125 g/ha (kochia (Kochia scoparia); [16]) | pest or weed control at 500 g/ha (kochia (Kochia scoparia); [17]) | Corn plant response rating (crop injury, 0 = no effect, 100 = complete kill) at 125 g/ha (corn (Zea mays)) | plant injury at 500 g/ha (corn (Zea mays)) | pest or weed control at 125 g/ha [3, 18] | pest or weed control at 500 g/ha [3, 19] | pest or weed control at 125 g/ha [3, 20] | pest or weed control at 500 g/ha [3, 21] | pest or weed control at 125 g/ha [4, 22] | pest or weed control at 500 g/ha [4, 23] | pest or weed control at 125 g/ha [4, 24] | pest or weed control at 125 g/ha [5] | further results
1 | CC(=O)Oc1c(C)nn(C)c(=O)c1-c1c(C)oc2ccc(C)cc12 [Compound 14, 5-(acetyloxy)-4-(2,5-dimethyl-3-benzofuranyl)-2,6-dimethyl-3(2H)-pyridazinone] | 0% | 0% | 10% | 70% | 0% | 10% | 80% | 90% | 10% | 50% | 0% | 20% | 70% | 90% | 0% | 30% | 60% | 80% | 30% | 20% | pest or weed control at 500 g/ha [5]: 30%; pest or weed control at 125 g/ha [6]: 80%; pest or weed control at 500 g/ha [6]: 90%; Soybean plant response rating (soybean (Glycine max); [25]): 0; Plant response rating, Soybean (soybean (Glycine max); [26]): 5; Plant response rating, Soybean (soybean (Glycine max); [27]): 5; Soybean plant response rating (soybean (Glycine max); [28]): 0; Ragweed plant response rating [7, 25]: 15; Plant response rating, Ragweed [7, 26]: 50; Plant response rating, Ragweed [7, 27]: 98; Ragweed plant response rating [7, 28]: 90; Galium plant response rating [8, 25]: 50; Plant response rating, Galium [8, 26]: 80; Plant response rating, Galium [8, 27]: 90; Galium plant response rating [8, 28]: 55; Ryegrass, Italian plant response rating [9, 25]: 40; Plant response rating, Ryegrass, Italian [9, 26]: 65; Plant response rating, Ryegrass, Italian [9, 27]: 85; Ryegrass, Italian plant response rating [9, 28]: 60
2 | CC(=O)Oc1c(C)nn(C)c(=O)c1-c1c(C)oc2c(C)cc(C)cc12 [Compound 16, 5-(acetyloxy)-2,6-dimethyl-4-(2,5,7-trimethyl-3-benzofuranyl)-3(2H)-pyridazinone] | 0% | 0% | 20% | 80% | 0% | 30% | 50% | 60% | 0% | 30% | 0% | 0% | 30% | 70% | 0% | 0% | 50% | 80% | 30% | 10% | pest or weed control at 500 g/ha ([4]; pre-emergence, Preemergence, 0 no effect, 100 complete control, read-out: Plant response rating, Ryegrass, Italian): 80%; pest or weed control at 500 g/ha [5]: 30%; pest or weed control at 125 g/ha [6]: 90%; pest or weed control at 500 g/ha [6]: 100%; Soybean plant response rating (soybean (Glycine max); [25]): 0; Plant response rating, Soybean (soybean (Glycine max); [26]): 0; Plant response rating, Soybean (soybean (Glycine max); [27]): 0; Soybean plant response rating (soybean (Glycine max); [28]): 0; Ragweed plant response rating [7, 25]: 0; Plant response rating, Ragweed [7, 26]: 0; Plant response rating, Ragweed [7, 27]: 30; Ragweed plant response rating [7, 28]: 0; Galium plant response rating [8, 25]: 60; Plant response rating, Galium [8, 26]: 85; Plant response rating, Galium [8, 27]: 80; Galium plant response rating [8, 28]: 80; Ryegrass, Italian plant response rating [9, 25]: 10; Plant response rating, Ryegrass, Italian [9, 26]: 60; Plant response rating, Ryegrass, Italian [9, 27]: 70; Ryegrass, Italian plant response rating [9, 28]: 50
